Results published in patent publication US12453709B2, “Compositions and methods for treating autism” (priority 2013, dated 2025).
Marks after values point to notes of the source that are not given here.

Test system: male patients diagnosed with autism
Assay: Study HT 02-121: adverse events
Type: in vivo, human
Experimental: The purpose of this clinical study (referred to herein as “Study HT 02-121”; i.e., Example 6) was to determine whether L1-79 was a well-tolerated and clinically useful agent for the treatment of ASD, and to assess the PK and pharmacodynamics (PD) of four weeks of TID dosing with L1-79. […] The first cohort of 20 patients was comprised of three groups of patients: The first group of five patients received open-label L1-79 100 mg TID and underwent PK and EKG assessments. […] The PK and safety data from the open-label L1-79 100 mg TID group was submitted to FDA for review and acceptance before the second cohort was enrolled. The second cohort was procedurally identical to the first. The second cohort of 20 patients was comprised of the same three groups of patients but a dose of 200 mg TID was used instead of 100 mg TID. The key inclusion criteria were as follows: […] Safety was the primary endpoint of the study. The following safety endpoints were assessed: ECGs, physical exams, laboratory evaluations (hematology, chemistry and urinalysis), vital signs, including orthostatic blood pressure, adverse events (AEs) and concomitant medications. The incidence of AEs by primary system organ class and preferred term is presented in Table 7, and a listing of the AEs reported during the study is presented in Table 8. All AEs were mild to moderate in intensity and self-limited.

[1] = patient 01-011, OL 200 mg TID, treatment emergent Y, resolved
[2] = patient 02-001, OL 100 mg TID, treatment emergent Y, resolved
[3] = patient 02-018, DB 200 mg TID, treatment emergent Y, resolved

Structure (SMILES): CC(N)(Cc1ccc(O)cc1)C(=O)O (racemic) [L1-79, α-methyl-DL-tyrosine]
- Incidence of AEs: Nasopharyngitis (OL 100 mg TID, N = 5): 0[0] n(%)
- Incidence of AEs: Nervous system disorders (OL 100 mg TID, N = 5): 0[0] n(%)
- Incidence of AEs: Otitis externa (OL 100 mg TID, N = 5): 0[0] n(%)
- Incidence of AEs: Psychiatric disorders (OL 100 mg TID, N = 5): 2(40.0) n(%)
- Incidence of AEs: Pyrexia (OL 100 mg TID, N = 5): 0[0] n(%)
- Incidence of AEs: Renal and urinary disorders (OL 100 mg TID, N = 5): 0[0] n(%)
- Incidence of AEs: Respiratory, thoracic & mediastinal disorders (OL 100 mg TID, N = 5): 0[0] n(%)
- Incidence of AEs: Seasonal allergy (OL 100 mg TID, N = 5): 0[0] n(%)
- Incidence of AEs: Syncope (OL 100 mg TID, N = 5): 0[0] n(%)
- Incidence of AEs: Urinary incontinence (OL 100 mg TID, N = 5): 0[0] n(%)
- Number of AE events: All primary SOC (OL 100 mg TID, N = 5): 6 [e]
- Number of AE events: Anxiety (OL 100 mg TID, N = 5): 1 [e]
- Number of AE events: Confusional state (OL 100 mg TID, N = 5): 1 [e]
- Number of AE events: International self-injury (OL 100 mg TID, N = 5): 2 [e]
- Number of AE events: Irritability (OL 100 mg TID, N = 5): 2 [e]
- Number of AE events: Psychiatric disorders (OL 100 mg TID, N = 5): 6 [e]
- Incidence of AEs: Agitation (OL 200 mg TID, N = 6): 0[0] n(%)
- Incidence of AEs: All primary SOC (OL 200 mg TID, N = 6): 2(40.0) n(%)
- Incidence of AEs: Amylase † (OL 200 mg TID, N = 6): 0[0] n(%)
- Incidence of AEs: Anxiety (OL 200 mg TID, N = 6): 0[0] n(%)
- Incidence of AEs: Blood TSH † (OL 200 mg TID, N = 6): 0[0] n(%)
- Incidence of AEs: Confusional state (OL 200 mg TID, N = 6): 0[0] n(%)
- Incidence of AEs: Cough (OL 200 mg TID, N = 6): 1(20.0) n(%)
- Incidence of AEs: Crystal urine present (OL 200 mg TID, N = 6): 0[0] n(%)
- Incidence of AEs: Diarrhoea (OL 200 mg TID, N = 6): 0[0] n(%)
- Incidence of AEs: Ear infection (OL 200 mg TID, N = 6): 0[0] n(%)
- Incidence of AEs: Fatigue (OL 200 mg TID, N = 6): 1(20.0) n(%)
- Incidence of AEs: GI disorders (OL 200 mg TID, N = 6): 0[0] n(%)
- Incidence of AEs: General disorders & administration site conditions (OL 200 mg TID, N = 6): 2(40.0) n(%)
- Incidence of AEs: Generalized tonic-clonic seizure (OL 200 mg TID, N = 6): 0[0] n(%)
- Incidence of AEs: Immune system disorders (OL 200 mg TID, N = 6): 1(20.0) n(%)
- Incidence of AEs: Infections and infestations (OL 200 mg TID, N = 6): 0[0] n(%)
- Incidence of AEs: International self-injury (OL 200 mg TID, N = 6): 0[0] n(%)
- Incidence of AEs: Investigations (OL 200 mg TID, N = 6): 0[0] n(%)
- Incidence of AEs: Irritability (OL 200 mg TID, N = 6): 0[0] n(%)
- Incidence of AEs: Nasopharyngitis (OL 200 mg TID, N = 6): 0[0] n(%)
- Incidence of AEs: Nervous system disorders (OL 200 mg TID, N = 6): 0[0] n(%)
- Incidence of AEs: Otitis externa (OL 200 mg TID, N = 6): 0[0] n(%)
- Incidence of AEs: Psychiatric disorders (OL 200 mg TID, N = 6): 0[0] n(%)
- Incidence of AEs: Pyrexia (OL 200 mg TID, N = 6): 1(20.0) n(%)
- Incidence of AEs: Renal and urinary disorders (OL 200 mg TID, N = 6): 0[0] n(%)
- Incidence of AEs: Respiratory, thoracic & mediastinal disorders (OL 200 mg TID, N = 6): 1(20.0) n(%)
- Incidence of AEs: Seasonal allergy (OL 200 mg TID, N = 6): 1(20.0) n(%)
- Incidence of AEs: Syncope (OL 200 mg TID, N = 6): 0[0] n(%)
- Incidence of AEs: Urinary incontinence (OL 200 mg TID, N = 6): 0[0] n(%)
- Number of AE events: All primary SOC (OL 200 mg TID, N = 6): 4 [e]
- Number of AE events: Cough (OL 200 mg TID, N = 6): 1 [e]
- Number of AE events: Fatigue (OL 200 mg TID, N = 6): 1 [e]
- Number of AE events: General disorders & administration site conditions (OL 200 mg TID, N = 6): 2 [e]
- Number of AE events: Immune system disorders (OL 200 mg TID, N = 6): 1 [e]
- Number of AE events: Pyrexia (OL 200 mg TID, N = 6): 1 [e]
- Number of AE events: Respiratory, thoracic & mediastinal disorders (OL 200 mg TID, N = 6): 1 [e]
- Number of AE events: Seasonal allergy (OL 200 mg TID, N = 6): 1 [e]
- AE Relationship: cough (patient 01-011, OL 200 mg TID): not related
- AE Relationship: pyrexia (fever) (patient 01-011, OL 200 mg TID): not related
- AE Severity: cough [1]: moderate
- AE Severity: pyrexia (fever) [1]: moderate
- AE Relationship: crystal urine present (urine cystine crystal present) (patient 01-014, DB 200 mg TID): not related
- AE Severity: crystal urine present (urine cystine crystal present) (patient 01-014, DB 200 mg TID, reported at 4-week follow-up visit, resolved): mild
- AE Relationship: diarrhoea (diarrhea) (patient 01-016, DB 200 mg TID): not related
- AE Severity: diarrhoea (diarrhea) (patient 01-016, DB 200 mg TID, treatment emergent Y, resolved): moderate
- AE Relationship: fatigue (tiredness) (patient 01-016, OL 200 mg TID): possibly related
- AE Relationship: seasonal allergy (patient 01-016, OL 200 mg TID): not related
- AE Severity: seasonal allergy (patient 01-016, OL 200 mg TID, treatment emergent Y, not resolved): moderate
- AE Severity: fatigue (tiredness) (patient 01-016, OL 200 mg TID, treatment emergent Y, resolved): mild
- AE Relationship: crystal urine present (urine cystine crystal present) (patient 01-018, DB 200 mg TID): not related
- AE Severity: crystal urine present (urine cystine crystal present) (patient 01-018, DB 200 mg TID, reported at 4-week follow-up visit, resolved): mild
- AE Relationship: anxiety (anxious) (patient 02-001, OL 100 mg TID): possibly related
- AE Relationship: confusional state (mental confusion) (patient 02-001, OL 100 mg TID): possibly related
- AE Relationship: intentional self-injury (self injurious behavior) (patient 02-001, OL 100 mg TID): possibly related
- AE Relationship: irritability (patient 02-001, OL 100 mg TID): possibly related
- AE Severity: anxiety (anxious) [2]: mild
- AE Severity: confusional state (mental confusion) [2]: mild
- AE Severity: intentional self-injury (self injurious behavior) [2]: mild
- AE Severity: irritability [2]: mild
- AE Relationship: intentional self-injury (violent episodes of self injurious behavior) (patient 02-002, OL 100 mg TID): probably related
- AE Relationship: irritability (patient 02-002, OL 100 mg TID): probably related
- AE Severity: irritability (patient 02-002, OL 100 mg TID, treatment emergent Y, outcome unknown): mild
- AE Severity: intentional self-injury (violent episodes of self injurious behavior) (patient 02-002, OL 100 mg TID, treatment emergent Y, resolving): mild
- AE Relationship: synoope (synoope) (patient 02-009, DB 100 mg TID): not related
- AE Severity: synoope (synoope) (patient 02-009, DB 100 mg TID, treatment emergent Y, resolved): mild
- AE Relationship: anxiety (anxious mood) (patient 02-018, DB 200 mg TID): possibly related
- AE Relationship: blood thyroid stimulating hormone increased (elevated TSH) (patient 02-018, DB 200 mg TID): possibly related
- AE Relationship: diarrhoea (diarrhea) (patient 02-018, DB 200 mg TID): possibly related
- AE Relationship: otitis externa (patient 02-018, DB 200 mg TID): not related
- AE Severity: blood thyroid stimulating hormone increased (elevated TSH) (patient 02-018, DB 200 mg TID, reported at 4-week follow-up visit, resolved): moderate
- AE Severity: anxiety (anxious mood) [3]: mild
- AE Severity: diarrhoea (diarrhea) [3]: moderate
- AE Severity: otitis externa [3]: mild
- AE Relationship: generalized tonic-clonic seizer (grand mal seizure) (patient 02-023, DB 200 mg TID): possibly related
- AE Severity: generalized tonic-clonic seizer (grand mal seizure) (patient 02-023, DB 200 mg TID, treatment emergent Y, resolved, discontinued Y): moderate
- AE Relationship: diarrhoea (diarrhea) (patient 02-024, DB 200 mg TID): not related
- AE Relationship: ear infection (patient 02-024, DB 200 mg TID, AE reported pre-treatment): not related
- AE Severity: ear infection (patient 02-024, DB 200 mg TID, AE reported pre-treatment, resolving): mild
- AE Severity: diarrhoea (diarrhea) (patient 02-024, DB 200 mg TID, treatment emergent Y, resolved): mild
